Data from patent US20260151406A1, “COMPOSITION FOR PREVENTING OR TREATING PERIODONTITIS COMPRISING CANNABIDIOL AND TAURINE” (MBP CO., LTD., priority 2022, published 2026).

Key:
Type in all cases: cell-based
[1] = tested on: bone loss by RANKL in macrophages; assay: Inhibition of bone loss by RANKL in macrophages (pit formation area analysis); settings: pit formation area (FIG. 4)
Experimental: (§1) To confirm the inhibitory effect of CBD and taurine on bone loss caused by periodontitis, the degree of TRAP formation and bone loss by RANKL (receptor activator of nuclear factor-KB ligand) was analyzed through pit formation area analysis.
To further confirm the bone loss inhibition efficacy of CBD and taurine, the degree of inhibition of bone loss by RANKL in macrophages was analyzed.

[2] = tested on: TRAP-positive cell formation in macrophages; assay: Inhibition of TRAP-positive cell formation by RANKL during osteoclast differentiation; settings: osteoclast differentiation (FIG. 3)
Experimental: as §1
As a result of analyzing the degree of inhibition of TRAP-positive cell formation by RANKL during osteoclast differentiation, it was confirmed that the inhibition efficacy of TRAP-positive cell formation was very low when CBD or taurine was used alone, but the inhibition efficacy of TRAP-positive cell formation was very high when CBD and taurine were used in combination (FIG. 3).

Raw264.7 cells = assay: Evaluation of cytotoxicity (intracellular toxicity); settings: CBD alone (FIG. 1)
Experimental: For CBD and taurine, intracellular toxicity evaluation was performed on osteoclasts (Raw264.7 cells), which are inflammatory cells, and the results are shown in FIG. 1. […] The appropriate concentrations of CBD (10 uM) and Taurine (0.5 mM) were determined, and intracellular toxicity evaluation according to subsequent combined treatment was performed.

Structure (SMILES)	bone loss inhibition efficacy [1]	inhibition efficacy of TRAP-positive cell formation [2]	concentration up to which there was no intracellular toxicity (Raw264.7 cells) [µM]
NCCS(=O)(=O)O [taurine]	almost none or very low	very low	–
C=C(C)[C@@H]1CCC(C)=C[C@H]1c1c(O)cc(CCCCC)cc1O [CBD, Cannabidiol]	almost none or very low	very low	≤ 12
